Source: patent publication US20230041563A1, “N-(1,3,4-OXADIAZOL-2-YL)ARYLCARBOXAMIDES OR SALTS THEREOF, PREPARATION METHODS, HERBICIDAL COMPOSITIONS AND USES THEREOF” (priority 2018, published 2023)

Assays:
weeds = experiment: Actual control effects and combined effects of mixtures of active ingredients (i) and (ii), stem-leaf treatment, Gowing method; assay type: in vivo; conditions: Cyperus difformis, 20 days
Leptochloa chinensis = experiment: Transplanted rice safety evaluation and weed control effect evaluation in rice field; assay type: in vivo
From the text: (§1) Transplanted rice safety evaluation and weed control effect evaluation in rice field:
(§2) Rice field soil was loaded into a 1/1,000,000 ha pot. The seeds of echinochloa crusgali, scirpus juncoides, Bidens tripartita, Sagittaria trifolia, Monochoria vaginalis and Leptochloa chinensis were sowed and gently covered with soil, then left to stand still in greenhouse in the state of 0.5-1 cm of water storage. The tuber of Sagittaria trifolia was planted in the next day or 2 days later. It was kept at 3-4 cm of water storage thereafter. The weeds were treated by dripping the WP or SC water diluents prepared according to the common preparation method of the compounds of the present invention with pipette homogeneously to achieve specified effective amount when echinochloa crusgali, scirpus juncoides, Bidens tripartita, Monochoria vaginalis and Leptochloa chinensis reached 0.5 leaf stage and Sagittaria trifolia reached the time point of primary leaf stage.
(§3) The fertility condition of echinochloa crusgali, scirpus juncoides, Bidens tripartita, Leptochloa chinensis, Sagittaria trifolia and Monochoria vaginalis 14 days after the treatment of the compound of the invention and the fertility condition of rice 21 days after the treatment of the compound of the invention respectively with the naked eye. Evaluate the weed control effect with 0-5 activity standard level. Many compounds show excellent activity and selectivity.

Monochoria vaginalis = experiment: as above; assay type: in vivo
From the text: as §1, §2, §3

Sagittaria trifolia = experiment: as above; assay type: in vivo
From the text: as §1, §2, §3

Echinochloa crusgali = experiment: as above; assay type: in vivo
From the text: as §1, §2, §3

Rice = experiment: as above; assay type: in vivo, rice (japonica rice/Indica rice)
Description: as §1
In addition, the rice field soil that loaded into the 1/1,000,000 ha pot was leveled to keep water storage at 3-4 cm depth. The 3 leaf stage rice (japonica rice/Indica rice) was transplanted at 3 cm of transplanting depth the next day. The compound of the present invention was treated by the same way after 5 days of transplantation.
as §3

Digitaria sanguinalis = experiment: Weeding effect in post-emergence stage (greenhouse pot spray); assay type: in vivo
Summary of the method: (§4)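 Read-out: fresh-weight growth control rate scored 3 weeks after spraying, mean of three replicates. Plants treated at 2-3 leaf stage by spray tower, doses 500-15 g a.i./ha (500, 250, 125, 60, 15).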

Setaria viridis = experiment: as above; assay type: in vivo
Summary of the method: as §4

Echinochloa crusgalli = experiment: as above; assay type: in vivo
Summary of the method: as §4

[1] = tested on: Indica rice (Huanghuazhan); experiment: Safety test of control experiments on rice; assay type: in vivo; conditions: Dose 250 g a.i./ha
From the text: (§5) The activity level criteria for plant damage (i.e., growth control rate) are as follows: Comparative Experiments: [table]

[2] = tested on: Japonica rice (Huaidao No. 5); experiment: Safety test of control experiments on rice; assay type: in vivo; conditions: Dose 250 g a.i./ha
From the text: as §5

Abutilon theophrasti = experiment: Weeding effect in post-emergence stage (greenhouse pot spray); assay type: in vivo; conditions: for Abutilon theophrasti (activity level): Table 3, dose 60 g a.i./ha
Summary of the method: as §4

Scirpus juncoides = experiment: Transplanted rice safety evaluation and weed control effect evaluation in rice field; assay type: in vivo; conditions: Table 7, dose 125 g a.i./ha, 14 days after treatment
From the text: as §1, §2, §3

Amaranthus retroflexus = experiment: Weeding effect in post-emergence stage (greenhouse pot spray); assay type: in vivo
Summary of the method: as §4

Stellaria media = experiment: as above; assay type: in vivo
Summary of the method: as §4

[3] = tested on: rice and Echinochloa crusgali; experiment: Herbicide selection index between rice and Echinochloa crusgali; assay type: in vivo; conditions: average dose causing 10% phytotoxicity to rice divided by average dose causing 90% control efficiency to Echinochloa crusgali
[4] = Table 7, dose 125 g a.i./ha, 21 days after treatment
[5] = Table 7, dose 125 g a.i./ha, 14 days after treatment

Structure (SMILES)	Rice (safety level) (Rice; Table 8, dose 60 g a.i./ha)	Leptochloa chinensis (activity level) (Leptochloa chinensis; Table 8, dose 60 g a.i./ha)	Monochoria vaginalis (activity level) (Monochoria vaginalis; Table 8, dose 60 g a.i./ha)	Sagittaria trifolia (activity level) (Sagittaria trifolia; Table 8, dose 60 g a.i./ha)	Echinochloa crusgali (activity level) (Echinochloa crusgali; Table 8, dose 60 g a.i./ha)	Indica rice (Huanghuazhan) (plant damage level) [1]	Japonica rice (Huaidao No. 5) (plant damage level) [2]	Rice (safety level) (Rice; [4])	Monochoria vaginalis (activity level) (Monochoria vaginalis; [5])	Echinochloa crusgali (activity level) (Echinochloa crusgali; [5])	Scirpus juncoides (activity level) (Scirpus juncoides)	Selection index between rice and Echinochloa crusgali [3]	Abutilion theophrasti (activity level) (Abutilon theophrasti; Table 2, dose 125 g a.i./ha)	Abutilon theophrasti (activity level) (Abutilon theophrasti)	Digitaria sanguinalis (activity level) (Digitaria sanguinalis; Table 2, dose 125 g a.i./ha)	Digitaria sanguinahs (activity level) (Digitaria sanguinalis; Table 3, dose 60 g a.i./ha)	Setaria viridis (activity level) (Setaria viridis; Table 3, dose 60 g a.i./ha)	Echinochloa crusgah (activity level) (Echinochloa crusgalli; Table 2, dose 125 g a.i./ha)	Amaranthus retroflexus (activity level) (Amaranthus retroflexus; Table 2, dose 125 g a.i./ha)	Stellaria media (activity level) (Stellaria media; Table 2, dose 125 g a.i./ha)	further results
COc1cnc(OC)n2nc(NS(=O)(=O)c3c(OCC(F)F)cccc3C(F)(F)F)nc12 [Penoxsulam, reference compound]	–	–	–	–	–	–	–	–	–	–	–	–	–	–	–	–	–	–	–	–	pest or weed control at 15 g/ha (weeds; 480 h, (ii) 1 g a.i./mu, stem-leaf treatment, read-out: Control effect of (ii) alone at corresponding dose): 66.4%; pest or weed control at 27 g/ha (weeds; 480 h, (ii) 1.8 g a.i./mu, read-out: Control effect of (ii) alone at corresponding dose): 80.2%; Control effect of (ii) alone at corresponding dose (weeds; (ii) 1 g a.i./mu): 66.4%; Leptochloa chinensis (activity level) (Leptochloa chinensis; Table 8, 30 g a.i./ha): 1 (Level 1: growth control rate is greater than or equal to 5% and less than 20%); Monochoria vaginalis (activity level) (Monochoria vaginalis; Table 8, 30 g a.i./ha): 1 (Level 1: growth control rate is greater than or equal to 5% and less than 20%); Sagittaria trifolia (activity level) (Sagittaria trifolia; Table 8, 30 g a.i./ha): 0 (Level 0: growth control rate is less than 5%); Echinochloa crusgali (activity level) (Echinochloa crusgali; Table 8, 30 g a.i./ha): 0 (Level 0: growth control rate is less than 5%)
Cc1nnc(NC(=O)c2ccc(C(F)(F)F)c([S@@+]([O-])CC(C)C)c2F)o1 [1-20 (R-configuration)]	0 (Level 0: growth control rate is less than 5%)	5 (Level 5: growth control rate is above 85%)	5 (Level 5: growth control rate is above 85%)	5 (Level 5: growth control rate is above 85%)	5 (Level 5: growth control rate is above 85%)	–	–	–	–	–	–	–	–	–	–	–	–	–	–	–	–
Cc1nnc(NC(=O)c2ccc(C(F)(F)F)c([S@+]([O-])CCCCl)c2F)o1 [1-414 (R-configuration)]	0 (Level 0: growth control rate is less than 5%)	5 (Level 5: growth control rate is above 85%)	5 (Level 5: growth control rate is above 85%)	5 (Level 5: growth control rate is above 85%)	5 (Level 5: growth control rate is above 85%)	–	–	–	–	–	–	–	–	–	–	–	–	–	–	–	Digitaria sanguinahs (activity level) (Digitaria sanguinalis; Table 3, dose 500 g a.i./ha): 5 (Level 5: growth control rate is above 85%); Setaria viridis (activity level) (Setaria viridis; Table 3, dose 500 g a.i./ha): 5 (Level 5: growth control rate is above 85%); Echinochloa crusgali (activity level) (Echinochloa crusgalli; Table 3, dose 500 g a.i./ha): 5 (Level 5: growth control rate is above 85%)
COCC[S+]([O-])c1c(C(F)(F)F)ccc(C(=O)Nc2nnc(C)o2)c1F (racemic) [Compound 1-57]	–	–	–	–	–	0 (Level 0: growth control rate is less than 5%)	0 (Level 0: growth control rate is less than 5%)	0 (Level 0: growth control rate is less than 5%)	5 (Level 5: growth control rate is above 85%)	5 (Level 5: growth control rate is above 85%)	5 (Level 5: growth control rate is above 85%)	>5	–	–	–	–	–	–	–	–	Abutilion theophrasti (activity level) (Abutilon theophrasti; Table 2, dose 500 g a.i./ha): 5 (Level 5: growth control rate is above 85%); Digitaria sanguinalis (activity level) (Digitaria sanguinalis; Table 2, dose 500 g a.i./ha): 5 (Level 5: growth control rate is above 85%); Echinochloa crusgah (activity level) (Echinochloa crusgalli; Table 2, dose 500 g a.i./ha): 5 (Level 5: growth control rate is above 85%); Amaranthus retroflexus (activity level) (Amaranthus retroflexus; Table 2, dose 500 g a.i./ha): 5 (Level 5: growth control rate is above 85%); Stellaria media (activity level) (Stellaria media; Table 2, dose 500 g a.i./ha): 5 (Level 5: growth control rate is above 85%)
CCCC[S+]([O-])c1c(C(F)(F)F)ccc(C(=O)Nc2nnc(C)o2)c1F (racemic) [Compound 1-14]	–	–	–	–	–	0 (Level 0: growth control rate is less than 5%)	0 (Level 0: growth control rate is less than 5%)	0 (Level 0: growth control rate is less than 5%)	5 (Level 5: growth control rate is above 85%)	5 (Level 5: growth control rate is above 85%)	5 (Level 5: growth control rate is above 85%)	>5	5 (Level 5: growth control rate is above 85%)	5 (Level 5: growth control rate is above 85%)	5 (Level 5: growth control rate is above 85%)	5 (Level 5: growth control rate is above 85%)	5 (Level 5: growth control rate is above 85%)	5 (Level 5: growth control rate is above 85%)	5 (Level 5: growth control rate is above 85%)	5 (Level 5: growth control rate is above 85%)	–
CC[S+]([O-])c1c(C(F)(F)F)ccc(C(=O)Nc2nnc(C)o2)c1F (centres unmarked) [Compound 1-5]	–	–	–	–	–	0 (Level 0: growth control rate is less than 5%)	0 (Level 0: growth control rate is less than 5%)	0 (Level 0: growth control rate is less than 5%)	5 (Level 5: growth control rate is above 85%)	5 (Level 5: growth control rate is above 85%)	5 (Level 5: growth control rate is above 85%)	>5	5 (Level 5: growth control rate is above 85%)	5 (Level 5: growth control rate is above 85%)	5 (Level 5: growth control rate is above 85%)	5 (Level 5: growth control rate is above 85%)	5 (Level 5: growth control rate is above 85%)	5 (Level 5: growth control rate is above 85%)	5 (Level 5: growth control rate is above 85%)	5 (Level 5: growth control rate is above 85%)	Abutilion theophrasti (activity level) (Abutilon theophrasti; Table 2, dose 60 g a.i./ha): 5 (Level 5: growth control rate is above 85%); Digitaria sanguinalis (activity level) (Digitaria sanguinalis; Table 2, dose 60 g a.i./ha): 5 (Level 5: growth control rate is above 85%); Echinochloa crusgah (activity level) (Echinochloa crusgalli; Table 2, dose 60 g a.i./ha): 5 (Level 5: growth control rate is above 85%); Echinochloa crusgali (activity level) (Echinochloa crusgalli; Table 3, dose 60 g a.i./ha): 5 (Level 5: growth control rate is above 85%); Amaranthus retroflexus (activity level) (Amaranthus retroflexus; Table 2, dose 60 g a.i./ha): 5 (Level 5: growth control rate is above 85%); Stellaria media (activity level) (Stellaria media; Table 2, dose 60 g a.i./ha): 5 (Level 5: growth control rate is above 85%)
